Assay results reported in patent publication US20180177771A1, “BIOMARKERS FOR NANOPARTICLE COMPOSITIONS” (priority 2015, published 2018).

Key:
ABCB1/ABCG2 = settings: cited from earlier work
[1] = in vivo; cited from earlier work
[2] = test system: UMUC3 human bladder cancer xenografts; assay: UMUC3 bladder cancer mouse xenograft, Part B combination study; settings: ABI-009 3 mg/kg twice weekly IV, gemcitabine 30 mg/kg twice weekly IP
Procedure: The anti-tumor efficacy of a panel of drugs, including mitomycin C, cisplatin, gemcitabine, valrubicin, and docetaxel, in combination with Nab-sirolimus (such as ABI-009) were evaluated and compared in a UMUC3 cell xenograft model in athymic nude mice.
Tumors were established from the UMUC3 cells as follows. Female athymic nude mice were obtained and housed in filter-topped cages supplied with autoclaved bedding. Animal handling procedures were under laminar flow hood. Each mouse was ear tagged for individual identification, and the body weight of each mouse was recorded. UMUC3 cells (10×10^6 cells per flank in 0.1 mL PBS with 20% Matrigel) were injected subcutaneously into the right flank of each mouse to implant the tumor. Tumor measurements were recorded three times per week (such as on Mondays, Wednesdays and Fridays) until tumors became approximately 60 to 160 mm^3 total. The mice were randomized for treatment once the average tumor volumes reached approximately 100 mm^2. Prior to the treatment, body weights and tumor measurements of all mice were recorded.
In the Part B combination study, athymic mice bearing UMUC3 human bladder cancer xenografts were treated until study end with ABI-009 (3 mg/kg, twice weekly, IV via tail vein), mitomycin C (0.5 mg/kg, twice weekly, IP), cisplatin (3 mg/kg, twice weekly. IP), gemcitabine (30 mg/kg, twice weekly, IP), valrubicin (20 mg/kg, twice weekly, IP), and docetaxel (3 mg/kg, twice weekly, IP) either as single agent or in combination (ABI-009 plus chemotherapeutic agent). Animals were monitored for tumor volume and body weight.
In each combination of drugs being administered comprising Nab-sirolimus and a second drug (such as MMC. Cis, GEM. Val, and Doc), the second drug was administered immediately before Nab-sirolimus. The mice were monitored during the course of the treatment by recording body weights three times per week (such as on Mondays, Wednesdays and Fridays), recording signs of distress daily, and recording tumor measurements three times per week (such as on Mondays. Wednesdays and Fridays). Measurements of tumor sizes and body weights were continued for 2 weeks following completion of the dosing regimen, or until the mouse was sacrificed when the tumor size of the mouse is more than 2000 mm^3.

Row | SMILES | affinity for ABCB1/ABCG2 (ABCB1/ABCG2) | brain penetration [1] | animal survival compared with saline control [2] | antitumor activity (tumor growth inhibition) compared with saline control [2] | median survival ([2]; Log-rank test) [days] | TGI ([2]; single agent or combination) [%]
1 | COc1ccc(COc2cc3oc(=O)c4cc(C(C)O)ccc4c3cc2OC)cc1 (stereo not drawn) [Palomid 529] | lacks affinity for ABCB1/ABCG2 | good brain penetration | – | – | – | –
2 | Nc1ccn([C@@H]2O[C@H](CO)[C@@H](O)C2(F)F)c(=O)n1 [gemcitabine] | – | – | only modest effects | only modest effects | 20 | 41.7
